Patent US10835513B2, “Methods and treatments for the learning and memory deficits associated with Noonan syndrome” (The Regents of the University of California, priority 2013, dated 2020)

Legend:
Pyramidal neurons in CA1 = assay: Whole-cell voltage clamp recordings (AMPA:NMDA ratio, mEPSC) in AAV-PTPN11^D61G-infected hippocampi; type: cell-based, mice; conditions: SL327 1 μM; for AMPA:NMDA current ratio: 1 hr
Protocol: FIG. 4 are graphs showing PTPN11^D61G overexpression enhances excitatory synaptic function through increased Ras-Erk signaling. Panel a) AMPA receptor-mediated currents were measured at the peak of the currents at −65 mV, and NMDA currents were measured 50 ms after onset at +40 mV. The average of 15 traces is shown. Scale, 100 pA and 40 ms. Panel b) Group data showing the increased AMPA:NMDA current ratio in AAV-PTPN11^D61G mice (1.51±0.11, n=10 cells from 5 mice) compared with AAV-GFP mice (0.96±0.05, n=10 cells from 5 mice, t-test, ***P<0.001). […] Two-way ANOVA, interaction between viral treatment and drug, F(1, 31)=10.53, **P<0.01. […] Panel c) Paired-pulse facilitation ratio is unaffected by PTPN11^D61G. There was no significant difference at 25 ms or 50 ms intervals between two groups (AAV-PTPN11^D61G, n=12 cells from 5 mice; AAV-GFP, n=11 cells from 5 mice). Repeated-measures ANOVA, F(1, 21)=0.010, P=0.921. Panel d) PTPN11^D61G overexpression increases excitatory synaptic function. mEPSC frequency was increased in AAV-PTPN11^D61G-infected mice compared with AAV-GFP mice, and was reversed by SL327 (1 μM) treatment without affecting on the AAV-GFP group. mEPSC frequency: GFP/Veh, 1.50±0.53, n=9; PTPN11^D61G/Veh, 4.64±0.94, n=9; GFP/SL327, 1.28±0.19, n=7; PTPN11^D61G/SL327, 2.02±0.32, n=9; Two-way ANOVA with viral treatment as between-subjects factor, F(1, 30)=10.31, **P<0.01. […] Two-way ANOVA with viral treatment as between-subjects factor, F(1, 30)=0.470, P=0.498. Scale, 20 pA and 200 ms. Panel e) Excitatory synaptic function is increased in Ptpn11^D61G/+ mice and reversed by SL327 treatment. mEPSC frequency was increased in Ptpn11^D61G/+ mice compared with WT littermates, and was reversed by SL327 (1 μM) treatment. mEPSC frequency: WT/Veh, 2.68±0.55, n=9; Ptpn11^D61G/+/Veh, 5.71±0.56, n=10; WT/SL327, 2.46±0.63, n=9; Ptpn11^D61G/+/SL327, 2.87±1.02, n=9; Two-way ANOVA with genotype as between-subjects factor, F(1, 33)=5.914, *P<0.05. […] Two-way ANOVA with genotype as between-subjects factor, F(1, 33)=0.418, P=0.839. Scale, 20 pA and 200 ms.
We examined the electrophysiological mechanism underlying the LTP impairment in AAV-PTPN11^D61G-infected mice. Increases in Ras signaling are known to facilitate AMPA receptor trafficking to the surface membrane^20. For example, expression of constitutively active Ras enhances AMPA receptor-mediated currents in hippocampal neurons and impairs LTP^20. […]
(§1) Whole-cell voltage clamp recordings were done with an Axopatch 200B amplifier (Axon Instrument) as previously described^29, 30. […] For mEPSC recordings, voltage clamp recordings were performed at −60 mV in the presence of 100 μM picrotoxin and 1 μM TTX. mIPSCs were measured at +10 mV in the presence of 1 mM kynurenic acid and 1 μM TTX. […]

[1] = test system: pyramidal neurons of Ptpn11^D61G/+ mice; assay: Whole-cell voltage clamp mEPSC recordings in Ptpn11^D61G/+ mice; type: cell-based; conditions: SL327 1 μM
Protocol: FIG. 4 are graphs showing PTPN11^D61G overexpression enhances excitatory synaptic function through increased Ras-Erk signaling. Panel a) AMPA receptor-mediated currents were measured at the peak of the currents at −65 mV, and NMDA currents were measured 50 ms after onset at +40 mV. The average of 15 traces is shown. Scale, 100 pA and 40 ms. Panel b) Group data showing the increased AMPA:NMDA current ratio in AAV-PTPN11^D61G mice (1.51±0.11, n=10 cells from 5 mice) compared with AAV-GFP mice (0.96±0.05, n=10 cells from 5 mice, t-test, ***P<0.001). […] Two-way ANOVA, interaction between viral treatment and drug, F(1, 31)=10.53, **P<0.01. […] Panel c) Paired-pulse facilitation ratio is unaffected by PTPN11^D61G. There was no significant difference at 25 ms or 50 ms intervals between two groups (AAV-PTPN11^D61G, n=12 cells from 5 mice; AAV-GFP, n=11 cells from 5 mice). Repeated-measures ANOVA, F(1, 21)=0.010, P=0.921. […]
as §1

## N#C/C(=C(/N)Sc1ccc(N)cc1)c1ccccc1C(F)(F)F [SL327]
Pyramidal neurons in CA1; AAV-GFP mice
  mEPSC frequency: 1.28±0.19
Pyramidal neurons in CA1; AAV-PTPN11^D61G-infected mice
  mEPSC frequency: 2.02±0.32
Pyramidal neurons in CA1; GFP group
  AMPA:NMDA current ratio: 1.08±0.07
Pyramidal neurons in CA1; PTPN11^D61G group
  AMPA:NMDA current ratio: 1.07±0.11
[1]; Ptpn11^D61G/+ mice
  mEPSC frequency: 2.87±1.02
[1]; WT littermates
  mEPSC frequency: 2.46±0.63
